The target of this assay is T1, human CGRP receptor (Homo sapiens, UniProt O60894+Q16602).
T1 construct: SK-N-MC membranes (˜20 μg protein) are incubated for 180 minutes at ambient temperature; endogenous in cells; host or cells: SK-N-MC cells (membrane preparation)
Put plainly: Binding studies with SK-N-MC cells (125I-CGRP displacement on SK-N-MC membranes). The note with it: 50 pM 125I-iodotyrosyl-CGRP, 180 minutes at ambient temperature. As to the method:
A. Binding Studies with SK-N-MC Cells (Expressing the Human CGRP Receptor)
SK-N-MC membranes (˜20 μg protein) are incubated for 180 minutes at ambient temperature with 50 pM ^125I-iodotyrosyl-Calcitonin-Gene-Related Peptide and increasing concentrations of the test substances in a total volume of […] (assay buffer: 10 mM tris, 50 mM NaCl, 5 mM MgCl2, 1 mM EDTA, pH=7.4). The incubation is ended by rapid filtration through GF/B-glass fibre filters treated with polyethyleneimine (0.1%) using a cell harvester. The protein-bound radioactivity is measured using a gamma counter. Non-specific binding is defined as the bound radioactivity after the presence of 1 μM BIBN4096BS during incubation.
The concentration binding curves are analysed using computer-aided non-linear curve fitting.

The record followed here is US8278336B2, “Compounds” (Boehringer Ingelheim International GmbH, priority 2007, dated 2012).

pKi: −log10 of the molar value.

T1 sequence (Q16602 23-461): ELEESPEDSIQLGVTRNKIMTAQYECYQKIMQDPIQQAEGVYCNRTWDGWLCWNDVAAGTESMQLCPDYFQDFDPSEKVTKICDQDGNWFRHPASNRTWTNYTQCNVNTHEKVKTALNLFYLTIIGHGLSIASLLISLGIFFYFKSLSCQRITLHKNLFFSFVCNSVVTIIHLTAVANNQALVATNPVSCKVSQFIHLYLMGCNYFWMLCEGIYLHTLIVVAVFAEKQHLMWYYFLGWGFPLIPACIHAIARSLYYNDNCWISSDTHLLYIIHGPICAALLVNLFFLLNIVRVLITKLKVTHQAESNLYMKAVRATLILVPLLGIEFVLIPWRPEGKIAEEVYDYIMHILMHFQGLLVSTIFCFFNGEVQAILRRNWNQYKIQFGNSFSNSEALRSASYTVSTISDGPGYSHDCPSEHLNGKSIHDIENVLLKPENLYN
T1 sequence (O60894 27-148): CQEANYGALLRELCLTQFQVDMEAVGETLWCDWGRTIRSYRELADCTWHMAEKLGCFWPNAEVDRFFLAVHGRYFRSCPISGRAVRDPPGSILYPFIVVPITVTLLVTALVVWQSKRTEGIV

In general, pKi refers to the Ki on a negative log10 scale, so that one unit is a factor of ten. Lower therefore signals a large Ki. The compound `COc1ccc2c(c1)CCN(C1CCN(c3cc(C(=O)N4CCc5cc(F)ccc54)cc(=O)[nH]3)CC1)C(=O)N2` [Example 3, 3-[4′-(5-fluoro-2,3-dihydroindole-1-carbonyl)-6′-oxo-3,4,5,6,1′,6′-hexahydro-2H-1,2′-bipyridinyl-4-yl]-7-methoxy-1,3,4,5-tetrahydro-1,3-benzodiazepin-2-one] gave a pKi of 8.08. In the case of `Cn1c(N2CCC(n3c(=O)[nH]c4ncccc43)CC2)cc(C(=O)N2CCc3cc(F)ccc32)cc1=O` [Example 2, 4′-(5-fluoro-2,3-dihydroindole-1-carbonyl)-1′-methyl-4-(2-oxo-2,3-dihydroimidazo[4,5-b]-pyridin-1-yl)-3,4,5,6-tetrahydro-2H,1′H-[1,2′]bipyridinyl-6′-one] it was 6.32. Take `CC1(C)CN(C(=O)c2cc(N3CCC(n4c(=O)[nH]c5ncccc54)CC3)[nH]c(=O)c2)c2ccc(F)cc21` [Example 4, 4′-(5-fluoro-3,3-dimethyl-2,3-dihydroindole-1-carbonyl)-4-(2-oxo-2,3-dihydroimidazo[4,5-b]-pyridin-1-yl)-3,4,5,6-tetrahydro-2H,1′H-[1,2′]bipyridinyl-6′-one]: the pKi is 8.42.
